The source made the active and inactive calls. No cut-off for these calls is given here.
Each molecule was assayed against Protease (Human immunodeficiency virus 1) (UniProt Q9YQ12) (assay: (§1) Inhibition of Human immunodeficiency virus 1 protease activity after 60 mins by HPLC analysis).
Chain of Protease (Human immunodeficiency virus 1) (Q9YQ12 as listed by the source): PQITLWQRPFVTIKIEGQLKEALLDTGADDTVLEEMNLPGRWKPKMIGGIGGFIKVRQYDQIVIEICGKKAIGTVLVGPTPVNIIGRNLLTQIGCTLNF
`O=C1N[C@@H](Cc2ccccc2)[C@@H](CN2CCCc3ccccc3S2(=O)=O)O1` was tested, and the inhibition was “inactive”.

The molecules below were run against Protease (Human immunodeficiency virus 1, UniProt Q9YQ12) (assay: as §1).
Chain of Protease (Q9YQ12 whole entry): as the sequence (Q9YQ12 as listed by the source) above
Work on `CCOC(=O)NC(Cc1ccccc1)C(O)CN1C[C@@H](C)Cc2ccccc2S1(=O)=O` (single isomer, unassigned) yielded a Ki of 34 nM. For `C[C@H]1Cc2cc(C(F)(F)F)ccc2S(=O)(=O)N(C[C@@H](O)[C@H](Cc2ccccc2)NC(=O)OC(C)(C)C)C1`, the Ki was 186 nM. Molecule `CC(C)(C)OC(=O)N[C@@H](Cc1ccccc1)[C@H](O)CN1CCCc2ccccc2S1(=O)=O` has a Ki of 470 nM. For `C[C@H]1Cc2ccccc2S(=O)(=O)N(CC(O)C(Cc2ccccc2)NC(=O)OC(C)(C)C)C1` (single isomer, unassigned), the Ki was 29 nM. In the case of `COc1ccc2c(c1)C[C@H](C)CN(C[C@@H](O)[C@H](Cc1ccccc1)NC(=O)OC(C)(C)C)S2(=O)=O`, the Ki is reported as 19 nM. Work on `C[C@H]1Cc2ccc(C(F)(F)F)cc2S(=O)(=O)N(C[C@@H](O)[C@H](Cc2ccccc2)NC(=O)OC(C)(C)C)C1` yielded a Ki of 100 nM. `C=CCOC(=O)N[C@@H](Cc1ccccc1)[C@H](O)CN1C[C@@H](C)Cc2ccccc2S1(=O)=O` was tested, and the Ki was 27 nM. Molecule `C[C@@H]1Cc2ccccc2S(=O)(=O)N(CC(O)C(Cc2ccccc2)NC(=O)OC(C)(C)C)C1` (single isomer, unassigned) has a Ki of 1000 nM. `C[C@H]1Cc2cc(F)ccc2S(=O)(=O)N(CC(O)C(Cc2ccccc2)NC(=O)[C@@H]2CN(c3ccccc3)C(=O)O2)C1` (single isomer, unassigned) was tested, and the Ki was 30 nM. Molecule `C[C@H]1Cc2ccccc2S(=O)(=O)N(CC(O)C(Cc2ccccc2)NC(=O)Oc2ccccc2)C1` (single isomer, unassigned) has a Ki of 350 nM.

From ChEMBL document CHEMBL1833852, “Design, synthesis, and X-ray crystallographic analysis of a novel class of HIV-1 protease inhibitors” (J Med Chem, 2011)
